Values after ≈ are worked out from the molar mass of the structure shown.
Columns and labels:
[1] = biological target: T1, Polyunsaturated fatty acid 5-lipoxygenase (Homo sapiens, UniProt P09917); test: Inhibition of 5-LOX (unknown origin) by enzyme immune assay
T1 sequence (P09917 whole entry): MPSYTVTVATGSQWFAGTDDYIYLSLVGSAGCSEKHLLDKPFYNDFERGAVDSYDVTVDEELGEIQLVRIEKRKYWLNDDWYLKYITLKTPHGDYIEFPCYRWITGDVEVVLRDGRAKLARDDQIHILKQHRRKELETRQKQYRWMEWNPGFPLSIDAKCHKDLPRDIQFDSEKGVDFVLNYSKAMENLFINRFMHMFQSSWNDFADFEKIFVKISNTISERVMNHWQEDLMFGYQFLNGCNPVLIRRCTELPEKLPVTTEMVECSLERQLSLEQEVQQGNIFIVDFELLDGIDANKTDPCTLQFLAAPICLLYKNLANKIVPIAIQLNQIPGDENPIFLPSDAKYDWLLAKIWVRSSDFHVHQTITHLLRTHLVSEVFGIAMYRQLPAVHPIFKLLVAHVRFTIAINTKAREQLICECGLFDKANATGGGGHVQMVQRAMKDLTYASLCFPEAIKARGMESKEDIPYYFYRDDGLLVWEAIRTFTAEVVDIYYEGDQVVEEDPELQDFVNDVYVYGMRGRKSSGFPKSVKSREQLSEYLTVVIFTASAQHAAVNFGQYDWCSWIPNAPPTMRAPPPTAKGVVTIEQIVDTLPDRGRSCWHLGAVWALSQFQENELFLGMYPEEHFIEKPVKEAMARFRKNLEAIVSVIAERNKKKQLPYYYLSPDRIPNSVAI

[2] = Selectivity index, ratio IC50 for inhibition of ovine COX-1 to IC50 for inhibition of recombinant human COX-2
[3] = biological target: T2, Prostaglandin G/H synthase 2 (Homo sapiens, UniProt P35354); test: Inhibition of recombinant human COX-2 by enzyme immune assay
T2 sequence (P35354 whole entry): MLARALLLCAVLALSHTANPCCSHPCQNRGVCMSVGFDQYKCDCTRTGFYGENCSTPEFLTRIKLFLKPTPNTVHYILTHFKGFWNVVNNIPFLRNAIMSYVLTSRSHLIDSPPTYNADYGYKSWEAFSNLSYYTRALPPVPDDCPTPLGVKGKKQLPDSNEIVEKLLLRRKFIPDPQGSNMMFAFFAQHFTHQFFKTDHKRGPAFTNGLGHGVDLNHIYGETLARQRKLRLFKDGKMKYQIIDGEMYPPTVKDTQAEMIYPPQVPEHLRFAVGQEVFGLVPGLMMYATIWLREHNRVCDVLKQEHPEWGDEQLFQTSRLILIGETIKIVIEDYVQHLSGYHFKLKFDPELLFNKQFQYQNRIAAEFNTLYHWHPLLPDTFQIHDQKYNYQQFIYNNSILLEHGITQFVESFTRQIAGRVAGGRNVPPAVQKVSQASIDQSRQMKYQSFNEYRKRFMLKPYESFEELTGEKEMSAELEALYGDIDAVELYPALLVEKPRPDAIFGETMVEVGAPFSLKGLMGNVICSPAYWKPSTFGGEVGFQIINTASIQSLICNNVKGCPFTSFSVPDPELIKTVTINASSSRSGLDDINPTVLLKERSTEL

[4] = biological target: T1, Polyunsaturated fatty acid 5-lipoxygenase; test: Inhibition of 5-LOX (unknown origin)
[5] = biological target: T2, Prostaglandin G/H synthase 2; test: Inhibition of COX-2 (unknown origin)
[6] = Inhibition of soybean 5-LOX using linoleic acid as substrate by spectrophotometric analysis; design: species or system Glycine max
[7] = biological target: T2, Prostaglandin G/H synthase 2; test: Inhibition of COX-2 (unknown origin) using arachidonic acid as substrate preincubated for 15 mins followed by substrate addition by colorimetric assay
[8] = biological target: T1, Polyunsaturated fatty acid 5-lipoxygenase; test: Inhibition of 5-LOX (unknown origin) by fluorometric analysis
[9] = biological target: T3, Prostaglandin G/H synthase 1 (Homo sapiens, UniProt P23219); test: Inhibition of recombinant human COX-1 using arachidonic acid as substrate by ELISA
[10] = biological target: T2, Prostaglandin G/H synthase 2; test: Inhibition of recombinant human COX-2 using arachidonic acid as substrate by ELISA
[11] = biological target: T1, Polyunsaturated fatty acid 5-lipoxygenase; test: Inhibition of recombinant human 5-LOX using arachidonic acid as substrate preincubated for 10 mins followed by substrate addition and measured after 10 mins by ELISA
[12] = biological target: T1, Polyunsaturated fatty acid 5-lipoxygenase; test: Inhibition of recombinant human 5-LOX using arachidonic acid as substrate incubated for 10 mins by spectrophotometric analysis
[13] = biological target: T2, Prostaglandin G/H synthase 2; test: Inhibition of recombinant human COX-2 using arachidonic acid as substrate preincubated for 10 mins followed by substrate addition and measured after 2 mins by Ellman's reagent based ELISA
DU-145 = test: Antiproliferative activity against human DU-145 cells assessed as reduction in cell viability incubated for 48 hrs by MTT assay; type: functional, cell-based; conditions: DU-145, 48 h
Homo sapiens = organism: Homo sapiens; test: Selectivity index, ratio of IC50 for inhibition of human COX1 to IC50 for inhibition of human COX2
[14] = biological target: T2, Prostaglandin G/H synthase 2; test: Inhibition of recombinant human COX-2 using arachidonic acid as substrate preincubated for 10 mins followed by substrate addition and measured after 2 mins by ELISA
Rattus norvegicus [15] = test: Antiinflammatory activity in Wistar rat assessed as reduction in carragenan-induced paw edema at 10 mg/kg, po for 7 days followed by carrageenan stimulation and measured upto 6 hrs by vernier caliper method; type: functional; design: scale not given: the % may be the effect or the level left; conditions: time 7 day
[16] = biological target: T3, Prostaglandin G/H synthase 1; test: Inhibition of human COX-1 using arachidonic acid as substrate preincubated for 10 mins followed by substrate addition and measured after 2 mins by ELISA
[17] = biological target: T1, Polyunsaturated fatty acid 5-lipoxygenase; test: Inhibition of 5-LOX (unknown origin) using linoleic acid as substrate preincubated for 5 mins followed by substrate addition by spectrophotometric assay
[18] = Inhibition of soybean 5-LOX using arachidonic acid as substrate preincubated for 5 mins followed by substrate addition and measured after 5 mins by microplate spectrophotometric analysis; design: species or system Glycine max
[19] = biological target: T2, Prostaglandin G/H synthase 2; test: Inhibition of COX-2 (unknown origin) using arachidonic acid as substrate preincubated for 5 mins followed by substrate addition and measured after 20 mins by colorimetric assay
[20] = biological target: T2, Prostaglandin G/H synthase 2; test: Inhibition of COX-2 (unknown origin) by 2,7-dichlorofluorescein dye based spectrophotometric method
[21] = Antioxidant activity assessed as DPPH radical scavenging activity by spectrophotometric analysis; type: functional
[22] = biological target: T1, Polyunsaturated fatty acid 5-lipoxygenase; test: Inhibition of 5-LOX (unknown origin) by spectrophotometric method
[23] = biological target: T1, Polyunsaturated fatty acid 5-lipoxygenase; test: Inhibition of 5-LOX (unknown origin) by colorimetric assay
Rattus norvegicus [24] = test: Antiinflammatory activity in Wistar rat carragenan-induced paw edema model assessed as reduction in edema thickness at 50 mg/kg, po and measured after 2 hrs; type: functional; design: scale not given: the % may be the effect or the level left
[25] = biological target: T2, Prostaglandin G/H synthase 2; test: Inhibition of COX-2 (unknown origin) using arachidonic acid as substrate preincubated for 5 mins followed by substrate addition by colorimetric assay
[26] = biological target: T2, Prostaglandin G/H synthase 2; test: Inhibition of COX-2 (unknown origin) by colorimetric method
Rattus norvegicus [27] = test: Antiinflammatory activity in po dosed Sprague-Dawley rat assessed as reduction in carragenan-induced paw edema and measured after 4 hrs by vernier caliper method; type: functional; design: scale not given: the % may be the effect or the level left
Rattus norvegicus [28] = test: Antiinflammatory activity in carragenan-induced paw edema rat model assessed as reduction in edema thickness at 28 microg/kg, ip and measured after 4 hrs by digital Vernier caliper analysis; type: functional; design: scale not given: the % may be the effect or the level left; conditions: dose 28 µg/kg

T3 sequence (P23219 whole entry): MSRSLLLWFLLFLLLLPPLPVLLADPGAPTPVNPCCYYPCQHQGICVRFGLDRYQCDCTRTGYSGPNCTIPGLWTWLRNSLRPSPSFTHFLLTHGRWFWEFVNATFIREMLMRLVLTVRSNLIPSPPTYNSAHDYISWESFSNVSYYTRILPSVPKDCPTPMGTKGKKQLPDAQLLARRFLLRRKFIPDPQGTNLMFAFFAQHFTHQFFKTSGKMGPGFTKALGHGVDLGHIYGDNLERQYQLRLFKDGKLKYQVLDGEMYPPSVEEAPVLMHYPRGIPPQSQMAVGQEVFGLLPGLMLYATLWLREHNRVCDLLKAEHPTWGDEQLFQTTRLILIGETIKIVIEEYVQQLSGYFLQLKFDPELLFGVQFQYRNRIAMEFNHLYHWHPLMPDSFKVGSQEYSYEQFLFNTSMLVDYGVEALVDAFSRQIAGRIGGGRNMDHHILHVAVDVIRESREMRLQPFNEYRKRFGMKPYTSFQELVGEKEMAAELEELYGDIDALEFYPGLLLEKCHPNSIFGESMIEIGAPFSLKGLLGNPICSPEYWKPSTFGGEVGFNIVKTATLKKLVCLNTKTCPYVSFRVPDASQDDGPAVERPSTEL

**Q.** For `O=C(NC1CCCCC1)c1cc(/N=C/c2cc(O)ccc2O)ccc1O`, which IC50 [1] is on record?
**A.** 11.3 µM

**Q.** And the Ratio IC50 [2]?
**A.** 120

**Q.** What about the IC50 [3] of the same molecule?
**A.** 0.11 µM

**Q.** What does the source list for `COc1ccc(-c2nc(-c3cn(C)c4ccccc34)c(C(=O)c3ccc(C#N)cc3)s2)cc1OC`?
**A.** IC50 [4]: 1.37 µM; IC50 [5]: 2.1 µM

**Q.** Which IC50 [6] does the source give for `NC(=O)c1ccc(-c2nc(CSc3nc4ccccc4s3)no2)cc1` here?
**A.** 6.4 µM

**Q.** And the IC50 [7]?
**A.** 6.8 µM

**Q.** For `O=Cc1ccc(O)c(O)c1` [PROTOCATECHUALDEHYDE], which IC50 [5] is on record?
**A.** 19.7 µM

**Q.** Which results are given for `COc1ccc(/C=c2\c(=O)[nH]n3c(=O)c4ccccc4nc23)cc1OC`?
**A.** IC50 [8]: 1 µM; IC50 [9]: 0.684 µM; IC50 [10]: 0.284 µM

**Q.** Which IC50 [11] does the source give for `Oc1cc(O)cc(/C=C/c2ccc(O)c(O)c2)c1` [PICEATANNOL] here?
**A.** 0.39 µM

**Q.** What does the source list for `CC1=CCCC2C1(C)CCC(C)C2(C)CCC1=CC(=O)OC1O` (configuration not stated)?
**A.** IC50 [12]: 14.4 µM; IC50 [13]: 10.3 µM

**Q.** With `O=C(O)c1ccc(O)c(O)c1` [PROTOCATECHUIC ACID] as the molecule, how does the IC50 [5] read?
**A.** 25.4 µM

**Q.** Which IC50 (DU-145) does the source give for `COc1cc([C@@H]2c3cc4c(cc3[C@@H](O[C@@H]3O[C@@H]5CO[C@@H](C)O[C@H]5[C@H](O)[C@H]3O)[C@H]3COC(=O)[C@H]23)OCO4)cc(OC)c1O` [ETOPOSIDE] here?
**A.** 9.8 µM

**Q.** Which Ratio IC50 (Homo sapiens) does the source give for `CCc1cc(OC)c(OC)c(OC)c1` here?
**A.** 668

**Q.** And the IC50 [14]?
**A.** 0.18 µM

**Q.** Which IC50 [6] does the source give for `CON(C)C(=O)c1ccc(-c2nc(CSc3nc4ccccc4s3)no2)cc1` here?
**A.** 5.1 µM

**Q.** And the IC50 [7]?
**A.** 7.6 µM

**Q.** Which Activity (Rattus norvegicus [15]) does the source give for `O=C(c1sc(N(c2ccccc2)c2ccccc2)nc1-c1ccc([N+](=O)[O-])cc1)c1cccc2ccccc12` here?
**A.** 63%

**Q.** What about the IC50 [16] of the same molecule?
**A.** 8.06 µM

**Q.** And the Ratio IC50 (Homo sapiens)?
**A.** 115

**Q.** And the IC50 [14]?
**A.** 0.07 µM

**Q.** And the IC50 [17]?
**A.** 0.29 µM

**Q.** With `O=C(/N=C1\SC=C(c2ccc([N+](=O)[O-])cc2)C1c1ccccc1)c1cccc2ccccc12` (configuration not stated) as the molecule, how does the Ratio IC50 (Homo sapiens) read?
**A.** 90

**Q.** What about the IC50 [14] of the same molecule?
**A.** 0.08 µM

**Q.** And the IC50 [17]?
**A.** 0.36 µM

**Q.** What does the source list for `CCc1ccc(-c2ccc(-n3cc(CNC(=O)C(=O)c4c[nH]c5ccccc45)nn3)cc2)cc1`?
**A.** IC50 (DU-145): 8.17 µM; IC50 [18]: 7.73 µM; IC50 [19]: 0.12 µM

**Q.** Which results are given for `CC[C@H](CO)[C@@](C)(O)C/C=C/C(C)(C)OC(=O)C[C@]1(C)C=CC[C@@H](C)[C@@]12C=CC(C)(CC)O2` (some centres not stated)?
**A.** IC50 [20]: 1400 µM; IC50 [21]: 540 mg/L (≈ 1170 µM); IC50 [22]: 1620 µM

**Q.** What does the source list for `CCCCC(=O)OCC[C@@H]1CC=C[C@@H]2[C@H]1C(=O)O[C@@]2(C)CO`?
**A.** IC50 [20]: 2380 µM; IC50 [22]: 2580 µM

**Q.** For `CC1=NN(c2ccc(S(N)(=O)=O)cc2)C(=O)/C1=N/Nc1ccc(C(=O)O)cc1`, which IC50 [23] is on record?
**A.** 0.53 µM

**Q.** And the Activity (Rattus norvegicus [24])?
**A.** 72.72%

**Q.** What about the IC50 [25] of the same molecule?
**A.** 0.77 µM

**Q.** For `CCC[C@H](O)CCOC(=O)CC[C@]1(C)C=CC[C@@H](C)[C@@]12C=CC(C)(CC)O2` (some centres not stated), which IC50 [20] is on record?
**A.** 1850 µM

**Q.** And the IC50 [21]?
**A.** 590 mg/L (≈ 1560 µM)

**Q.** And the IC50 [22]?
**A.** 2030 µM

**Q.** Which IC50 [23] does the source give for `CC1=NN(c2ccc(S(N)(=O)=O)cc2)C(=O)/C1=N/Nc1ccc(S(N)(=O)=O)cc1` here?
**A.** 0.57 µM

**Q.** And the IC50 [25]?
**A.** 0.66 µM

**Q.** What does the source list for `N#Cc1c(-c2ccc(Cl)cc2)csc1NC(=O)CN1CCOCC1`?
**A.** IC50 [26]: 5.45 µM; Activity (Rattus norvegicus [27]): 58.77%; IC50 [4]: 4.33 µM; Ratio IC50 (Homo sapiens): 8.37

**Q.** For `CC1=CCCC2C1(C)CCC(C)C2(C)CC/C(=C\C(=O)O)CO` (configuration not stated), which IC50 [12] is on record?
**A.** 30.5 µM

**Q.** And the IC50 [13]?
**A.** 12.7 µM

**Q.** Which Activity (Rattus norvegicus [28]) does the source give for `O=C(NC1CCCCC1)c1cc(NCc2cc(O)ccc2O)ccc1O` here?
**A.** 114.12%

**Q.** What about the IC50 [3] of the same molecule?
**A.** 0.1 µM

From ChEMBL document CHEMBL5241097, “Synthetically-tailored and nature-derived dual COX-2/5-LOX inhibitors: Structural aspects and SAR” (Eur J Med Chem, 2021)
